In patent US8586505B2 (SDS Biotech K. K., priority 2009, dated 2013) one finds pest or weed control and melting point data, which are given here for 20 compounds.

Structures are written as SMILES.

For series [1], the system named is Phytophthora infestans. The experiment in a line: whole plant or invertebrate. Conditions: in Solanum lycopersicum, 96 h, read-out: Determination of control effect (preventive value). Type of series: in vivo.
Series [2] concerns Pseudoperonospora cubensis. The series is described as follows: Test of examining control effect on Pseudoperonospora cubensis (potted cucumber plants). As to conditions: 96 h, 10% wettable powder adjusted to 125 ppm, 15 ml/pot sprayed on potted cucumber plants one day before spray inoculation, assessed after 1 day wet chamber and 3 days greenhouse, read-out: Determination of control effect (preventive value) on Pseudoperonospora cubensis. Type of series: in vivo. The method in brief: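 Cucumber plants (Sagamihanjiro, 2.5-leaf stage) sprayed with 125 ppm compound solution from 10% wettable powder, 15 ml/pot. One day later, spray-inoculated with P. cubensis conidia (1.0×10^4 cells/ml), kept 1 day at 21° C wet, then 3 days in greenhouse. Preventive value derived from lesion area relative to untreated plants.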

For series [3], the system named is Sphaerotheca fuliginea. The experiment in a line: Test of examining control effect on Sphaerotheca fuliginea (potted cucumber plants). Type of series: in vivo. Conditions: Podosphaera fuliginea, 336 h; 10% wettable powder adjusted to 125 ppm, 15 ml/pot sprayed on potted cucumber plants one day before spray inoculation; assessed after 14 days in greenhouse; read-out: Determination of control effect (preventive value) on Sphaerotheca fuliginea. The method in brief:
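Cucumber plants (Sagamihanjiro, 2nd leaf stage) sprayed with 125 ppm compound (from 10% wettable powder), inoculated one day later with S. fuliginea conidia (1.0×10^5 cells/ml); lesion area scored after 14 days in greenhouse. Preventive value vs untreated; ≥60% high, <60% low control.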

Series [4] has as its system Tetranychus urticae eggs. The series is described as follows: Test of examining effect on Tetranychus urticae eggs (ovicidal rate). Conditions: 144 h, 0.4 ml sprayed, unhatched eggs counted six days later, read-out: Determination (ovicidal rate). Type of series: in vivo. How it is done: Thereafter, the released female adults were removed. […] Six days later, the number of unhatched eggs was counted, and an ovicidal rate was calculated.

Usually melting point stands for the temperature, or range, at which the solid turns liquid. In turn, `COC(=O)c1cccc(C#CCCNc2ncnc3sccc23)c1` [compound 30] yielded a melting point of 163 to 166 °C. For the same compound, in series [1], the pest or weed control at 125 ppm was 0 to 60%. For the same compound, the pest or weed control at 125 µg/mL in series [2] was in the range of 60 to 100%. For the same compound, the pest or weed control at 125 µg/mL in series [3] was 0 to 60%. Moreover, the pest or weed control at 250 ppm in series [4] was 60 to 80%.
As for `CC(CC#Cc1ccc(C(F)(F)F)cc1)Nc1ncnc2sccc12` (stereo not shown) [compound 235], the pest or weed control at 125 ppm in series [1] is 60 to 100%. Moreover, the pest or weed control at 125 µg/mL in series [2] and in series [3] was 60 to 100% throughout. Further, the pest or weed control at 250 ppm in series [4] is ≥ 95%.
`CC(CC#Cc1ccc(S(F)(F)(F)(F)F)cc1)Nc1ncnc2sccc12` (stereo not shown) [compound 238]: the pest or weed control at 125 ppm in series [1] fell in the range of 60 to 100%. Besides, the pest or weed control at 125 µg/mL in series [2] and in series [3] was 60 to 100% throughout. Further, the pest or weed control at 250 ppm in series [4] is ≥ 95%.
For the compound `COc1ccc(C#CCCNc2ncnc3sccc23)cc1OC` [compound 24], the melting point fell in the range of 182 to 184 °C. The pest or weed control at 125 ppm in series [1] lay within 0 to 60%. Besides, the pest or weed control at 125 µg/mL in series [2] lay within 60 to 100%. For the same compound, in series [3], the pest or weed control at 125 µg/mL was in the range of 60 to 100%. For the same compound, the pest or weed control at 250 ppm in series [4] is 60 to 80%.
Turning to `CC(CC#Cc1ccccc1C(F)(F)F)Nc1ncnc2sccc12` (stereo not shown) [compound 233], in series [1], the pest or weed control at 125 ppm fell in the range of 60 to 100%. Also, the pest or weed control at 125 µg/mL in series [2] and in series [3] was 60 to 100% each time. Further, the pest or weed control at 250 ppm in series [4] lay within 80 to 95%.
For the compound `CC(CC#Cc1ccc(F)cc1Cl)Nc1ncnc2sccc12` (stereo not shown) [compound 247], the pest or weed control at 125 ppm in series [1] lay within 60 to 100%. For the same compound, the pest or weed control at 125 µg/mL in series [2] and in series [3] was 60 to 100% each time. In series [4], the pest or weed control at 250 ppm is 60 to 80%.
Regarding `CC(CC#Cc1cc(F)ccc1C(F)(F)F)Nc1ncnc2sccc12` (stereo not shown) [compound 248], the pest or weed control at 125 ppm in series [1] was in the range of 0 to 60%. The pest or weed control at 125 µg/mL in series [2] and in series [3] was 60 to 100% in each case. Besides, the pest or weed control at 250 ppm in series [4] lay within 60 to 80%.
Consider `CC(CC#Cc1ccc(C(C)C)cc1C(F)(F)F)Nc1ncnc2ccccc12` (stereo not shown) [compound 289], for which the pest or weed control at 125 ppm in series [1] was 0 to 60%. Moreover, the pest or weed control at 125 µg/mL in series [2] and in series [3] was 60 to 100% throughout. In addition, the pest or weed control at 250 ppm in series [4] is ≥ 95%.
As to `CC(CC#Cc1ccc(S(F)(F)(F)(F)F)cc1Cl)Nc1ncnc2sccc12` (stereo not shown) [compound 253], in series [1], the pest or weed control at 125 ppm was in the range of 0 to 60%. Besides, the pest or weed control at 125 µg/mL in series [2] and in series [3] was 60 to 100% each time. Moreover, in series [4], the pest or weed control at 250 ppm lay within 60 to 80%.
`CC(CC#Cc1ccc(Cl)cc1C(F)(F)F)Nc1ncnc2ccccc12` (stereo not shown) [compound 285]: the pest or weed control at 125 ppm in series [1] lay in the range of 60 to 100%. The pest or weed control at 125 µg/mL in series [2] and in series [3] was 60 to 100% in each case. Besides, the pest or weed control at 250 ppm in series [4] is ≥ 95%.
Consider `CC(C)(C)c1ccc(C#CCCNc2ncnc3sccc23)cc1` [compound 20], for which the pest or weed control at 125 ppm in series [1] was 0 to 60%. For the same compound, the pest or weed control at 125 µg/mL in series [2] and in series [3] was 60 to 100% in each case. Besides, the pest or weed control at 250 ppm in series [4] is 60 to 80%.
For `CC(CC#Cc1ccc(F)cc1C(F)(F)F)Nc1ncnc2ccccc12` (stereo not shown) [compound 286], in series [1], the pest or weed control at 125 ppm lay in the range of 60 to 100%. Also, the pest or weed control at 125 µg/mL in series [2] and in series [3] was 60 to 100% throughout. Besides, the pest or weed control at 250 ppm in series [4] lay within 80 to 95%.
With `CC(CC#Cc1ccc(S(F)(F)(F)(F)F)cc1)Nc1ncnc2ccccc12` (stereo not shown) [compound 277], the pest or weed control at 125 ppm in series [1] lay in the range of 0 to 60%. In addition, the pest or weed control at 125 µg/mL in series [2] and in series [3] was 60 to 100% throughout. In series [4], the pest or weed control at 250 ppm is ≥ 95%.
For the compound `CC(CC#Cc1ccc(F)cc1C(F)(F)F)Nc1ncnc2sccc12` (stereo not shown) [compound 249], in series [1], the pest or weed control at 125 ppm is 60 to 100%. Also, the pest or weed control at 125 µg/mL in series [2] and in series [3] was 60 to 100% in each case. In addition, the pest or weed control at 250 ppm in series [4] was ≥ 95%.
On to `CC(CC#Cc1ccc(Cl)cc1C(F)(F)F)Nc1ncnc2cccc(Cl)c12` (stereo not shown) [compound 350], for which the pest or weed control at 125 ppm in series [1] is 0 to 60%. Besides, the pest or weed control at 125 µg/mL in series [2] and in series [3] was 60 to 100% throughout. In addition, the pest or weed control at 250 ppm in series [4] was ≥ 95%.
For the compound `C(#Cc1ccccc1)CCNc1ncnc2sccc12` [compound 10, 4-(4-Phenyl-3-butynylamino)thieno[2,3-d]pyrimidine], in series [1], the pest or weed control at 125 ppm is 60 to 100%. In addition, the pest or weed control at 125 µg/mL in series [2] and in series [3] was 60 to 100% throughout. In series [4], the pest or weed control at 250 ppm lay within 60 to 80%.
With `COc1cccc(C#CCCNc2ncnc3sccc23)c1` [compound 22], in series [1], the pest or weed control at 125 ppm was 0 to 60%. Besides, the pest or weed control at 125 µg/mL in series [2] and in series [3] was 60 to 100% throughout. Also, the pest or weed control at 250 ppm in series [4] lay in the range of 60 to 80%.
For the compound `CC(CC#Cc1ccc(Cl)cc1C(F)(F)F)Nc1ncnc2sccc12` (stereo not shown) [compound 258], in series [1], the pest or weed control at 125 ppm fell in the range of 60 to 100%. Also, the pest or weed control at 125 µg/mL in series [2] and in series [3] was 60 to 100% each time. Besides, the pest or weed control at 250 ppm in series [4] was in the range of 60 to 80%.
Take `C=C(C#CCCNc1ncnc2ccccc12)c1ccccc1` [compound 95]: the pest or weed control at 125 ppm in series [1] lay within 0 to 60%. Also, the pest or weed control at 125 µg/mL is 60 to 100% in series [2] and 0 to 60% in series [3]. For the same compound, the pest or weed control at 250 ppm in series [4] lay in the range of 60 to 80%.
Take `CC(CC#Cc1ccc(C(C)C)cc1)Nc1ncnc2sccc12` (stereo not shown) [compound 241]: in series [1], the pest or weed control at 125 ppm is 60 to 100%. The pest or weed control at 125 µg/mL in series [2] and in series [3] was 60 to 100% each time. For the same compound, the pest or weed control at 250 ppm in series [4] was ≥ 95%.
